# From US8975265B2, “Substituted imidazo[1,2-a]pyrimidines and —pyridines” (Bayer Intellectual Property GmbH, priority 2010, dated 2015)
# Key:
# [1] = target: His-tagged human recombinant kinase full-length Akt1 (Homo sapiens (Human), UniProt P31749); assay: Akt1 kinase assay (TR-FRET); type: biochemical; conditions: 10 μM ATP; read-out: Akt1, median IC50
# Procedure: Biological Assay 1.0: Akt1 Kinase Assay
# Akt1 inhibitory activity of compounds of the present invention was quantified employing the Akt1 TR-FRET assay as described in the following paragraphs.
# As substrate for the kinase reaction the biotinylated peptide biotin-Ahx-[…] (C-terminus in amide form) was used which can be purchased e.g. from the company Biosynthan GmbH (Berlin-Buch, Germany).
# For the assay 50 nl of a 100 fold concentrated solution of the test compound in DMSO was pipetted into a black low volume 384 well microtiter plate (Greiner Bio-One, Frickenhausen, Germany), 2 μl of a solution of Akt1 in assay buffer [50 mM TRIS/HCl pH 7.5, 5 mM MgCl2, 1 mM dithiothreitol, 0.02% (v/v) Triton X-100 (Sigma)] were added and the mixture was incubated for 15 min at 22° C. to allow prebinding of the test compounds to the enzyme before the start of the kinase reaction. […] The concentration of Akt1 in the assay was adjusted depending of the activity of the enzyme lot and was chosen appropriate to have the assay in the linear range, typical enzyme concentrations were in the range of about 0.05 ng/μl (final conc. in the 5 μl assay volume).
# The resulting mixture was incubated 1 h at 22° C. to allow the binding of the biotinylated phosphorylated peptide to the streptavidine-XL665 and the antibodies. Subsequently the amount of phosphorylated substrate was evaluated by measurement of the resonance energy transfer from the anti-mouse-IgG-Eu-Chelate to the streptavidine-XL665.
# [2] = tested on: KPL-4 breast cancer cell line; assay: Tumor cell proliferation assay (CellTiter-Glo, 72 h), KPL-4; type: cell-based; conditions: KPL4, 72h drug exposure
# Procedure: Biological Assay 4.0: Tumor Cell Proliferation Assays
# Compounds were tested in a cell-based assay that measures the capacity of the compounds to inhibit tumour cell proliferation following a 72h drug exposure. Cell viability is determined using CellTiter-Glow® (CTG, Promega, cat# G7571/2/3). The CellTiter-Glo® Luminescent Cell Viability Assay is a homogeneous method to determine the number of viable cells in culture. Detection is based on using the luciferase reaction to measure the amount of ATP from viable cells. The amount of ATP in cells correlates with cell viability. Within minutes after a loss of membrane integrity, cells lose the ability to synthesize ATP, and endogenous ATPases destroy any remaining ATP; thus the levels of ATP fall precipitously.
# For each cell line assayed, cells were plated onto a separate plate for determination of […] at t=0 hour and t=72 hour time points. Following overnight incubation at 37° C., chemiluminescence values for the t=0 samples were determined after adding 10 μl medium and 100 μl CTG solution according to manufacture protocol. Plates for the t=72 hour time points were treated with compounds diluted into growth medium at ten times final concentration added in 10 μL to the cell culture plate. Cells were then incubated for 72 hours at 37° C. Chemiluminescence values for the t=72 hour samples were determined. […] Experiments were controlled using a reference compound as standard.
# [3] = tested on: p-AKT1/2/3-S473 in KPL4 breast tumour cell line; assay: Cellular p-AKT1/2/3-S473 assay; type: cell-based; conditions: KPL4 breast tumour cell line, 2 hours treatment; read-out: pAKT-S743 median IC50
# Procedure: The molecular mechanism of action was investigated in a set of experiments to assess the inhibition of the PI3K-AKT-mTOR pathway in responsive cell lines such as KPL4 breast tumour cell line (PIK3CAH1047R, HER20/E and hormone independent). The phospho-substrates of PI3K-AKT-mTOR axis were used as the read-outs to reflect pathway inhibition. Cells were seeded at 60-80% confluency per well in 96-well cell culture plates. After overnight incubation at 37° C. 5% CO2, cells were treated with compounds and vehicle at 37° C. for 2 hours. […] All measurements where at least done in duplicates and confirmed by independent repetition.
# Alternatively pAKT-S473 was measured using the “Akt Duplex” of the MULTI-SPOT® Assay System (Fa. Meso Scale Discovery, Cat# N41100B-1) following manufacturers instructions. Each assay used 20 μg of protein extract and measured total AKT and p-AKT content simultaneously in one well. All measurements where at least done in duplicates and confirmed by independent repetition. Values for P-AKT are expressed as percentage of P-AKT level compared to total-AKT content of the extracts.
# Sequence of His-tagged human recombinant kinase full-length Akt1 (P31749 whole entry): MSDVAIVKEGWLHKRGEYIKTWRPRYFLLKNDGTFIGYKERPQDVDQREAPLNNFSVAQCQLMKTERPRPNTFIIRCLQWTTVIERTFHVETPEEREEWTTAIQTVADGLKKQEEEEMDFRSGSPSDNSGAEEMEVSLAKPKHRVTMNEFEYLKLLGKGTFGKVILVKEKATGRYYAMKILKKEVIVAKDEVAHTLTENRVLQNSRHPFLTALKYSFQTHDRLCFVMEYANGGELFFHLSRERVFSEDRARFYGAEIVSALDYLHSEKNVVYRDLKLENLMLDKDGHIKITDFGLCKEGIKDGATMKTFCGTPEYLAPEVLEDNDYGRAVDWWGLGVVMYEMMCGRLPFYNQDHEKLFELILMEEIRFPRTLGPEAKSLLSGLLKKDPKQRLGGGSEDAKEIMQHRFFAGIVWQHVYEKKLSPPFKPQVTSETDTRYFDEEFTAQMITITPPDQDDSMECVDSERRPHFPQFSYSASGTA
Structure (SMILES),IC50 [1] [nM],IC50 [2] [nM],IC50 [3] [nM]
"NC1(c2ccc(-c3nc4ncccn4c3-c3ccccc3)cc2)CCC1 [Example 1-0, 1-[4-(3-phenyl-imidazo[1,2-a]pyrimidin-2-yl)-phenyl]-cyclobutylamine]",348,1500,–
Cc1ccn2c(-c3ccccc3)c(-c3ccc(C4(N)CCC4)cc3)nc2n1 [Example 1-1],–,2000,–
NC1(c2ccc(-c3nc4nc(C5CC5)ccn4c3-c3ccccc3)cc2)CCC1 [Example 1-2],–,1800,–
Cc1cnc2nc(-c3ccc(C4(N)CCC4)cc3)c(-c3ccccc3)n2c1 [Example 1-6],–,1000,–
COc1cnc2nc(-c3ccc(C4(N)CCC4)cc3)c(-c3ccccc3)n2c1 [Example 1-7],–,1000,38
CCOc1cnc2nc(-c3ccc(C4(N)CCC4)cc3)c(-c3ccccc3)n2c1 [Example 1-8],–,2300,–
NC1(c2ccc(-c3nc4cc(-n5cccn5)ccn4c3-c3ccccc3)cc2)CCC1 [Example 1-11],102,1500,37
CNC(=O)Nc1ccn2c(-c3ccccc3)c(-c3ccc(C4(N)CCC4)cc3)nc2c1 [Example 1-14],588,9800,1170
NC1(c2ccc(-c3nc4nc(O)ccn4c3-c3ccccc3)cc2)CCC1 [Example 2-1],544,5400,–
CCCOc1ccn2c(-c3ccccc3)c(-c3ccc(C4(N)CCC4)cc3)nc2n1 [Example 2-2],–,1700,250
N#Cc1cccn2c(-c3ccccc3)c(-c3ccc(C4(N)CCC4)cc3)nc12 [Example 2-3],–,2400,32
Cc1ccn2c(-c3ccccc3)c(-c3ccc(C4(N)CCC4)cc3)nc2c1 [Example 2-4],829,2000,292
Cc1cccn2c(-c3ccccc3)c(-c3ccc(C4(N)CCC4)cc3)nc12 [Example 2-5],100,4300,209
N#Cc1ccn2c(-c3ccccc3)c(-c3ccc(C4(N)CCC4)cc3)nc2c1 [Example 2-6],145,1600,333
COc1ccn2c(-c3ccccc3)c(-c3ccc(C4(N)CCC4)cc3)nc2c1 [Example 2-8],96,1800,237
CNC(=O)c1ccc2nc(-c3ccc(C4(N)CCC4)cc3)c(-c3ccccc3)n2c1 [Example 2-9],–,900,62
COCc1ccc2nc(-c3ccc(C4(N)CCC4)cc3)c(-c3ccccc3)n2c1 [Example 2-10],–,1900,428
COc1cccn2c(-c3ccccc3)c(-c3ccc(C4(N)CCC4)cc3)nc12 [Example 2-12],–,1300,159
CC(O)c1ccc2nc(-c3ccc(C4(N)CCC4)cc3)c(-c3ccccc3)n2c1 (centres unmarked) [Example 2-13],–,2200,758
NC1(c2ccc(-c3nc4cc(CO)ccn4c3-c3ccccc3)cc2)CCC1 [Example 2-14],–,3000,510
NC1(c2ccc(-c3nc4c(CO)cccn4c3-c3ccccc3)cc2)CCC1 [Example 2-15],–,3200,163
NC1(c2ccc(-c3nc4ccc(Br)cn4c3-c3ccccc3)cc2)CCC1 [Example 2-16],–,1900,477
COc1ccc2nc(-c3ccc(C4(N)CCC4)cc3)c(-c3ccccc3)n2c1 [Example 2-17],36,1500,35
CCOc1cccn2c(-c3ccccc3)c(-c3ccc(C4(N)CCC4)cc3)nc12 [Example 2-19],–,1600,93

Structure (SMILES),IC50 [1] [nM],IC50 [2] [nM],IC50 [3] [nM]
NC1(c2ccc(-c3nc4cc(-c5cn[nH]c5)ccn4c3-c3ccccc3)cc2)CCC1 [Example 2-22],188,1500,142
COC(=O)c1cccn2c(-c3ccccc3)c(-c3ccc(C4(N)CCC4)cc3)nc12 [Example 2-23],47,9800,1010
COCCNCc1ccc2nc(-c3ccc(C4(N)CCC4)cc3)c(-c3ccccc3)n2c1 [Example 2-24],–,4500,3320
NC1(c2ccc(-c3nc4ccc(CO)cn4c3-c3ccccc3)cc2)CCC1 [Example 2-25],504,2300,213
COc1ccc(COc2ccn3c(-c4ccccc4)c(-c4ccc(C5(N)CCC5)cc4)nc3n2)cn1 [Example 2-26],221,1900,90
COCCOc1ccn2c(-c3ccccc3)c(-c3ccc(C4(N)CCC4)cc3)nc2n1 [Example 2-27],1190,1900,111
COc1cc(COc2ccn3c(-c4ccccc4)c(-c4ccc(C5(N)CCC5)cc4)nc3n2)ccn1 [Example 2-28],179,1800,114
CCOc1ccn2c(-c3ccccc3)c(-c3ccc(C4(N)CCC4)cc3)nc2n1 [Example 2-29],190,1800,–
CC(C)Oc1ccn2c(-c3ccccc3)c(-c3ccc(C4(N)CCC4)cc3)nc2n1 [Example 2-30],–,2300,464
NC1(c2ccc(-c3nc4nc(OC5CCCCC5)ccn4c3-c3ccccc3)cc2)CCC1 [Example 2-31],–,1900,–
NC1(c2ccc(-c3nc4nc(Oc5ccccc5)ccn4c3-c3ccccc3)cc2)CCC1 [Example 2-32],–,1800,–
CCc1cnc2nc(-c3ccc(C4(N)CCC4)cc3)c(-c3ccccc3)n2c1 [Example 2-33],379,1000,187
COC(=O)c1ccc2nc(-c3ccc(C4(N)CCC4)cc3)c(-c3ccccc3)n2c1 [Example 2-36],–,10000,1020
NC1(c2ccc(-c3nc4c(Br)cccn4c3-c3ccccc3)cc2)CCC1 [Example 2-39],–,1600,32
NC1(c2ccc(-c3nc4cc(Br)ccn4c3-c3ccccc3)cc2)CCC1 [Example 2-40],–,1900,237
NC1(c2ccc(-c3nc4c(F)cccn4c3-c3ccccc3)cc2)CCC1 [Example 2-44],–,1500,48
NC1(c2ccc(-c3nc4c(Cl)cccn4c3-c3ccccc3)cc2)CCC1 [Example 2-45],–,1800,28
NC1(c2ccc(-c3nc4ccc(F)cn4c3-c3ccccc3)cc2)CCC1 [Example 2-46],–,1800,59
C=Cc1cccn2c(-c3ccccc3)c(-c3ccc(C4(N)CCC4)cc3)nc12 [Example 2-49],–,8700,303
NC1(c2ccc(-c3nc4cc(-c5ccccn5)ccn4c3-c3ccccc3)cc2)CCC1 [Example 2-111],–,1800,140
NC(=O)/C=C/c1ccn2c(-c3ccccc3)c(-c3ccc(C4(N)CCC4)cc3)nc2c1 [Example 2-124],–,2300,101
NC1(c2ccc(-c3nc4ccc(-c5cn[nH]c5)cn4c3-c3ccccc3)cc2)CCC1 [Example 2-132],–,1700,40
"N[C@]1(c2ccc(-c3nc4nc(O)ccn4c3-c3ccccc3)cc2)C[C@H](O)C1 [Example 3-0, 2-[4-(cis-1-amino-3-hydroxy-cyclobutyl)-phenyl]-3-phenyl-imidazo[1,2-a]pyrimidin-7-ol]",384,–,–
